Consider 18 compounds from US10323038B2, “Pyrazole compounds and methods of making and using same” (ABIDE THERAPEUTICS, INC., priority 2015, dated 2019).

One assay has as its target FAAH (Mus musculus (Mouse), UniProt O08914). The experiment in a line: In vitro competitive activity-based protein profiling, FAAH (mouse). In kind it is biochemical. Particulars: for inhibition at 1 µM: read-out: FAAH % inh. 1 μM (mouse). Put shortly:
(§1)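 Mouse brain membrane fraction or cell lysates (mouse assays) and human prefrontal cortex or cell membrane fractions (human assays), 1.0 mg/mL protein, were preincubated with varying inhibitor concentrations for 30 min at 37° C. FP-Rh or HT-01 probe (50 μM stock in DMSO) was then added for another 30 min at 37° C.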

The target of another assay is MAGL (Mus musculus (Mouse), UniProt O35678). The assay can be described thus: In vitro competitive activity-based protein profiling, MAGL (mouse). In kind it is biochemical. The note with it: for inhibition at 1 µM: read-out: MAGL % inh. 1 μM (mouse). Put shortly: as §1
Sequence of MAGL (O35678 whole entry): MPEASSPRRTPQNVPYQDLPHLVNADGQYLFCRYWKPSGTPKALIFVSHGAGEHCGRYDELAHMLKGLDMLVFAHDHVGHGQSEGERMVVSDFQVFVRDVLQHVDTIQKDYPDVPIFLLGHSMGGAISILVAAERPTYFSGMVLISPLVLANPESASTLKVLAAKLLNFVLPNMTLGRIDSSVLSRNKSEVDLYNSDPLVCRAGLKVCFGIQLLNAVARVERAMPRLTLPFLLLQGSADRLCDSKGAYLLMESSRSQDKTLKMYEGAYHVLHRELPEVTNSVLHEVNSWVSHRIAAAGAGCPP

Sequence of FAAH (O08914 whole entry): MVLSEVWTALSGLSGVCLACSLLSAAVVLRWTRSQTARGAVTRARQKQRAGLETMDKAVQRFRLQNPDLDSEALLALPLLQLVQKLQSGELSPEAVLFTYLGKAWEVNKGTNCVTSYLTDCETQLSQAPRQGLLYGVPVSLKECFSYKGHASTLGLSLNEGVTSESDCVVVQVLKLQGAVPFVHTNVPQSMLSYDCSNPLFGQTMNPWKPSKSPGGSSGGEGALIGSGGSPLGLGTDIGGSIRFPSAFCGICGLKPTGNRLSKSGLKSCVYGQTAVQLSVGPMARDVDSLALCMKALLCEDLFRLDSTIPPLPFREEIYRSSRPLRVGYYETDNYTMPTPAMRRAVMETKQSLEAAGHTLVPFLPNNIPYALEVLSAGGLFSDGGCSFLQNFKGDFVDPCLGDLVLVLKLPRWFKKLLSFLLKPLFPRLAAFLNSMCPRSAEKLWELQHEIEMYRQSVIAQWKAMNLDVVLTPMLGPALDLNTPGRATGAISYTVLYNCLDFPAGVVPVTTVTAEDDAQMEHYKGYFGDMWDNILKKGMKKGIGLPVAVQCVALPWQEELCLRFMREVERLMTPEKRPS

What is called IC50 is the concentration needed to halve the response being measured. Low readings indicate inhibition by little substance, high ones a need for much substance. As to `CC(=O)N(C)c1cnn(C(=O)N2CC3CN(Cc4ccc(OCc5ccccc5)cc4)CC3C2)c1` (stereo not shown) [Example 248, N-(1-(5-(4-(benzyloxy)benzyl)octahydropyrrolo[3,4-c]pyrrole-2-carbonyl)-1H-pyrazol-4-yl)-N-methylacetamide], the IC50 at FAAH and at MAGL was ≤ 100 nM each time. In addition, the inhibition at 1 µM at FAAH and on MAGL was ≥ 75% in each case.

For the compound `CC(=O)N(C)c1cnn(C(=O)N2CC3CN(Cc4cccc(OCc5ccc(Cl)cc5)c4)CC3C2)c1` (stereo not shown) [Example 249, N-(1-(5-(3-((4-chlorobenzyl)oxy)benzyl)octahydropyrrolo[3,4-c]pyrrole-2-carbonyl)-1H-pyrazol-4-yl)-N-methylacetamide], the inhibition at 1 µM at FAAH and at MAGL was ≥ 75% in each case.

On to `CC(=O)N(C)c1cnn(C(=O)N2CC3CN(Cc4ccc(N5C[C@@H]6C[C@H]5CN6C)cc4C(F)(F)F)CC3C2)c1` (stereo partly drawn) [Example 250, N-methyl-N-(1-(5-(4-((1S,4S)-5-methyl-2,5-diazabicyclo[2.2.1]heptan-2-yl)-2-(trifluoromethyl)benzyl)octahydropyrrolo [3,4-c]pyrrole-2-carbonyl)-1H-pyrazol-4-yl)acetamide], for which the figures for the inhibition at 1 µM on FAAH and at MAGL were 50 to 75% and ≥ 75%, respectively.

For `CC(=O)N(C)c1cnn(C(=O)N2CC3CN(Cc4cc(Cl)cc(OCc5ccccc5)c4)CC3C2)c1` (stereo not shown) [Example 251, N-(1-(5-(3-(benzyloxy)-5-chlorobenzyl)octahydropyrrolo[3,4-c]pyrrole-2-carbonyl)-1H-pyrazol-4-yl)-N-methylacetamide], on FAAH, the IC50 is ≤ 100 nM and the inhibition at 1 µM was ≥ 75%. Moreover, at MAGL, the IC50 is ≤ 100 nM and the inhibition at 1 µM was ≥ 75%.

As for `CC(=O)N(C)c1cnn(C(=O)N2CC3CN(Cc4ccc(Oc5nc6ccccc6s5)cc4Cl)CC3C2)c1` (stereo not shown) [Example 252, N-(1-(5-(4-(benzo[d]thiazol-2-yloxy)-2-chlorobenzyl)octahydropyrrolo[3,4-c]pyrrole-2-carbonyl)-1H-pyrazol-4-yl)-N-methylacetamide], the inhibition at 1 µM on FAAH and on MAGL was ≥ 75% in each case.

Take `CC(=O)N(C)c1cnn(C(=O)N2CC3CN(Cc4ccc(OC(C)C)cc4Cl)CC3C2)c1` (stereo not shown) [Example 253, N-(1-(5-(2-chloro-4-isopropoxybenzyl)octahydropyrrolo[3,4-c]pyrrole-2-carbonyl)-1H-pyrazol-4-yl)-N-methylacetamide]: the inhibition at 1 µM at FAAH and on MAGL was ≥ 75% throughout.

As to `CC(=O)N(C)c1cnn(C(=O)N2CC3CN(Cc4ccc(Oc5nc6ccccc6s5)cc4C(F)(F)F)CC3C2)c1` (stereo not shown) [Example 254, N-(1-(5-(4-(benzo[d]thiazol-2-yloxy)-2-(trifluoromethyl)benzyl)octahydropyrrolo [3,4-c]pyrrole-2-carbonyl)-1H-pyrazol-4-yl)-N-methylacetamide], the inhibition at 1 µM on FAAH and at MAGL was ≥ 75% each time.

On to `CC(=O)N(C)c1cnn(C(=O)N2CC3CN(Cc4ccc(OC(C)C)cc4C(F)(F)F)CC3C2)c1` (stereo not shown) [Example 255, N-(1-(5-(4-isopropoxy-2-(trifluoromethyl)benzyl)octahydropyrrolo [3,4-c]pyrrole-2-carbonyl)-1H-pyrazol-4-yl)-N-methylacetamide], for which the inhibition at 1 µM at FAAH and at MAGL was ≥ 75% throughout.

As to `CC(=O)N(C)c1cnn(C(=O)N2CC3CN(Cc4ccc(OCC(=O)N5CCCC5)cc4C(F)(F)F)CC3C2)c1` (stereo not shown) [Example 256, N-methyl-N-(1-(5-(4-(2-oxo-2-(pyrrolidin-1-yl)ethoxy)-2-(trifluoromethyl)benzyl)octahydropyrrolo [3,4-c]pyrrole-2-carbonyl)-1H-pyrazol-4-yl)acetamide], the inhibition at 1 µM at FAAH is ≥ 75%; at MAGL it was 0 to 25%.

As to `CC(=O)N(C)c1cnn(C(=O)N2CC3CN(Cc4ccc(Oc5ccnnc5)cc4Cl)CC3C2)c1` (stereo not shown) [Example 257, N-(1-(5-(2-chloro-4-(pyridazin-4-yloxy)benzyl)octahydropyrrolo[3,4-c]pyrrole-2-carbonyl)-1H-pyrazol-4-yl)-N-methylacetamide], the values for the inhibition at 1 µM on FAAH and on MAGL were ≥ 75% and 50 to 75%, respectively.

As for `CC(=O)N(C)c1cnn(C(=O)N2CC3CN(Cc4ccc(Oc5ccnnc5)cc4C(F)(F)F)CC3C2)c1` (stereo not shown) [Example 258, N-methyl-N-(1-(5-(4-(pyridazin-4-yloxy)-2-(trifluoromethyl)benzyl)octahydropyrrolo [3,4-c]pyrrole-2-carbonyl)-1H-pyrazol-4-yl)acetamide], the inhibition at 1 µM at FAAH and at MAGL was ≥ 75% throughout.

As to `CC(=O)N(C)c1cnn(C(=O)N2CC3CN(Cc4ccc(-c5cncnc5)cc4Cl)CC3C2)c1` (stereo not shown) [Example 259, N-(1-(5-(2-chloro-4-(pyrimidin-5-yl)benzyl)octahydropyrrolo[3,4-c]pyrrole-2-carbonyl)-1H-pyrazol-4-yl)-N-methylacetamide], the inhibition at 1 µM on FAAH and on MAGL was ≥ 75% each time.

On to `CC(=O)N(C)c1cnn(C(=O)N2CC3CN(Cc4ccc(-c5cccnn5)cc4Cl)CC3C2)c1` (stereo not shown) [Example 260, N-(1-(5-(2-chloro-4-(pyridazin-3-yl)benzyl)octahydropyrrolo[3,4-c]pyrrole-2-carbonyl)-1H-pyrazol-4-yl)-N-methylacetamide], for which the inhibition at 1 µM on FAAH and at MAGL was ≥ 75% throughout.

As for `CC(=O)N(C)c1cnn(C(=O)N2CC3CN(Cc4ccc(-c5ncccn5)cc4Cl)CC3C2)c1` (stereo not shown) [Example 261, N-(1-(5-(2-chloro-4-(pyrimidin-2-yl)benzyl)octahydropyrrolo[3,4-c]pyrrole-2-carbonyl)-1H-pyrazol-4-yl)-N-methylacetamide], the inhibition at 1 µM on FAAH and at MAGL was ≥ 75% in each case.

With `CC(=O)N(C)c1cnn(C(=O)N2CCC3(CCN(Cc4ccc(-c5cncnc5)cc4Cl)C3)C2)c1` (stereo not shown) [Example 262, N-(1-(7-(2-chloro-4-(pyrimidin-5-yl)benzyl)-2,7-diazaspiro[4.4]nonane-2-carbonyl)-1H-pyrazol-4-yl)-N-methylacetamide], the inhibition at 1 µM on FAAH and at MAGL was ≥ 75% throughout.

As for `CC(=O)N(C)c1cnn(C(=O)N2CCC3(CCN(Cc4ccc(-c5cccnn5)cc4Cl)C3)C2)c1` (stereo not shown) [Example 263, N-(1-(7-(2-chloro-4-(pyridazin-3-yl)benzyl)-2,7-diazaspiro[4.4]nonane-2-carbonyl)-1H-pyrazol-4-yl)-N-methylacetamide], the inhibition at 1 µM at FAAH and at MAGL was ≥ 75% each time.

As to `CC(=O)N(C)c1cnn(C(=O)N2CCC3(CCN(Cc4ccc(-c5cnccn5)cc4Cl)C3)C2)c1` (stereo not shown) [Example 264, N-(1-(7-(2-chloro-4-(pyrazin-2-yl)benzyl)-2,7-diazaspiro[4.4]nonane-2-carbonyl)-1H-pyrazol-4-yl)-N-methylacetamide], the inhibition at 1 µM on FAAH and on MAGL was ≥ 75% in each case.

As to `CC(=O)N(C)c1cnn(C(=O)N2CC3CN(Cc4ccc(Oc5cncnc5)cc4C(F)(F)F)CC3C2)c1` (stereo not shown) [Example 265, N-methyl-N-(1-(5-(4-(pyrimidin-5-yloxy)-2-(trifluoromethyl)benzyl)octahydropyrrolo [3,4-c]pyrrole-2-carbonyl)-1H-pyrazol-4-yl)acetamide], the inhibition at 1 µM on FAAH and at MAGL was ≥ 75% in each case.
